Data as given in US20240426824A1, “METHODS RELATING TO TREATMENT OF ACUTE MYELOID LEUKEMIA” (BOARD OF REGENTS, THE UNIVERSITY OF TEXAS SYSTEM, priority 2021, published 2024).

How the values were obtained:
MV4-11 VTX-sen cell line = assay: Immunoblot protein expression after VTX treatment, MV4-11 cells; assay type: cell-based; details: 24 hours post treatment with VTX, identical experimental conditions
Experimental: Protein expression validation in AML cell lines. MOLM-13 parental and VTX-resistant cells were the kind gift of Dr. Marina Konopleva (MD Anderson Cancer Center; Houston, TX, USA). OCI-AML-3, KG-1, and MV4-11 cells were obtained from the Leukemia Sample Bank (LSB) at MD Anderson. For protein expression comparison in cell lines, immunoblot analysis was performed. Cells were boiled and sonicated in lysis buffer and protein (1.5×10^5 cell equivalents) was subjected to electrophoresis using SDS/PAGE. Immunoblot analysis was performed with antibodies against CBL (BD Transduction Lab), PRKCB.pS660 (Cell Signaling, Beverly, MA), SYK (Santa Cruz, Dallas, TX), PKM2 (Cell Signaling), STAT3.pS727 (Cell Signaling), Beta-Actin (Sigma Aldrich, St. Louis, MO), GADPH (Ambion, Austin, TX) and Alpha-Tubulin (Sigma Aldrich). Signals were detected by using the ProteinSimple FluorChem imaging system and quantified by AlphaView software. Beta-Actin, GAPDH, and Alpha-Tubulin were used as loading controls. Densitometry was calculated as protein expression/expression of housekeeping gene, relative to the control.
The above findings were validated by looking for similar responses in cell lines in vitro in response to VTX exposure. […]

adults with AML = assay: Clinical outcome of VTX treated patients, clusters by 44-protein classifier (Example 1); assay type: in vivo, human
Experimental: Reverse Phase Protein Array (RPPA) as described by Tibes et al. 2006 and Kornblau et al. 2011 was performed on leukemia blast enriched fractions prepared from diagnostic samples of 818 adults with AML, of which 143 were treated with venetoclax (VTX) including 33 in combination with high dose Ara-C, 5 with standard dose Ara-C, 50 with hypomethylating agents (HMA), and 13 with HMA and targeted therapy (either CPX-351 liposome, a dual-drug liposomal encapsulation of cytarabine and daunorubicin, or anthracycline). Protein expression levels were evaluated using 390 validated antibodies against total and post translationally modified (phosphorylated, methylated, cleaved) as described by Hoff et al. 2019. proteins and were analyzed in the context of clinical data compiled by retrospective chart review. Pearson correlation was used to identify significant protein-protein correlations. Survival curves were generated by the Kaplan-Meier method and survival data was analyzed by multivariate cox regression model. Protein expression signatures were identified by hierarchical clustering and predictive models of protein classifiers were determined by classification and regression trees (CART) analysis.
We queried the 390 proteins (Table 1) assayed in the 143 VTX treated patients to identify proteins individually prognostic for overall survival (OS) or remission duration (REMDUR) and identified 27 proteins correlated with OS (p<0.01) and 44 proteins correlated with REMDUR (p<0.01). Neither MCL1, BCLXL nor BCL2 expression at diagnosis were prognostic of overall survival (OS) or remission duration (REMDUR).

[1] = system: adult patients with newly diagnosed AML; assay: Clinical outcome of VTX-containing induction chemotherapy, clusters by 36-protein classifier (Example 2); assay type: in vivo, human
Text: Sample Collection and Processing. Peripheral blood (PB) and bone marrow (BM) samples were collected from 818 adult patients with newly diagnosed AML, of which 143 received VTX-containing induction chemotherapy, evaluated at the University of Texas MD Anderson Cancer Center (MDACC) between January 2012 and July 2020. Informed consent was obtained in accordance with the Declaration of Helsinki. Samples were processed and analyzed under an Investigational Review Board (IRB) approved laboratory protocol (Lab 06-0565).
Following data normalization, a cohort of 143 patients that received VTX-containing induction chemotherapy was identified for separate analysis for the purposes of this manuscript. Survival curves were generated by Kaplan-Meier method and survival data was analyzed by multivariate cox regression model. [Refs. 12, 13] Protein expression signatures were identified by hierarchical Progeny clustering. [Ref. 14] Correlations between clustered protein signatures and clinical features were assessed using Fisher's exact test for categorical variables and the Kruskal-Wallis test for continuous variables. Multivariate analysis for survival outcomes OS and RD was performed by Cox regression model. Median protein expression within clusters was compared to median expression in the normal controls to identify significant expression trends with the Wilcoxon test. Protein networks were built using Cytoscape (version 3.9.1) combining literature-based protein interactions queried from the STRING database and proteomic-based interactions inferred from the RPPA data derived from Pearson correlation. [Ref. 11] Predictive classifier models were assembled in Python using the random forest machine learning technique. All bioinformatics and analysis were performed in Rstudio (version 1.3.1093) with R (version 4.1.2).
A cohort of 143 patients that received VTX as a component of induction chemotherapy was identified, of which 27 received VTX combined with high-dose cytarabine (Ara-C), 29 combined with low- or standard-dose Ara-C, […], 6 with high-dose Ara-C and a hypomethylating agent, and 12 combined with targeted therapy (5 FLT3 inhibitors, 5 IDH inhibitors, 2 TP53 inhibitors). In the VTX cohort, 5 patients were not treated at MDACC leaving 138 patients evaluable for outcome and further analysis. Median age at diagnosis was 68 years (range 18-90 years) with median follow-up 58 weeks (range 2-396 weeks). […] Patient demographic, diagnostic labs, (data not shown) treatment, and outcome data was compiled to be analyzed against protein expression data.
Next, recurring patterns of expression were identified across the 36 proteins correlated to OS (FIGS. 3A and 3B) by applying the Progeny clustering algorithm utilizing k-means, and unbiased hierarchical clustering [Ref. 14] identifying three distinct protein expression patterns Cluster 1 (C1; n=41), Cluster 2 (C2; n=63), and Cluster 3 (C3; n=39). Protein expression was somewhat heterogeneous between clusters for several proteins, namely AR, STAT3.pY705, and RAF1.pS338. Expression of CDKN1B and CDKN1B.pS10 were nearly universally high in AML samples relative to the CD34+ controls, albeit phosphorylated CDKN1B was relatively higher in C1 members. While universally low across AMVL samples, ASH2L and MSH6 were relatively lower in the C1 signature as were PRMT1, MAPK14.pT180, HSF1.pS326, EIF4EBP1.pS65, EIF2AK2, and WDR5. The C3 signature was marked by relatively high expression of PrMT1, KMT2D, STAT3.pS727, EP300, and TSC2 and relatively low expression in AKR1C3, YWHAE, TNK1, COPS5, ATF3, SGK1, VTCN1, TNFRSF4, and PEA15.

CC1(C)CCC(CN2CCN(c3ccc(C(=O)NS(=O)(=O)c4ccc(NCC5CCOCC5)c([N+](=O)[O-])c4)c(Oc4cnc5[nH]ccc5c4)c3)CC2)=C(c2ccc(Cl)cc2)C1 [VTX, venetoclax]
reduction in the expression of PKM2 (MV4-11 VTX-sen cell line): > 50%
Remission rate (adults with AML; cluster 1): 61%
relapse risk (RR) at 1-yr (adults with AML; cluster 1): 45%
estimated 3-yr overall survival (adults with AML; cluster 1 (n=102)): 27%
Remission rate (adults with AML; cluster 2): 77%
relapse risk (RR) at 1-yr (adults with AML; cluster 2): 18%
estimated 3-yr overall survival (adults with AML; cluster 2 (n=41)): 66%
median OS ([1]; C1): 182.7 weeks
relapse rate ([1]; C1, patients that achieved remission (n=32)): 21.9%
median OS ([1]; C2): 55.1 weeks
median remission duration ([1]; C2): 129 weeks
relapse rate ([1]; C2, patients that achieved remission (n=40)): 42.5%
median OS ([1]; C3): 35.7 weeks
median remission duration ([1]; C3): 39 weeks
relapse rate ([1]; C3, patients that achieved remission (n=18)): 66.7%
Remission rate ([1]; Cluster 1 (C1)): 82%
Remission rate ([1]; Cluster 2 (C2)): 70%
Remission rate ([1]; Cluster 3 (C3)): 50%
Remission (CR/CRi) achieved ([1]; all evaluable patients (138), n=90): 65%
relapsed, of patients in remission ([1]; of 90 patients in remission, n=36): 40%
